Each block holds one molecule with its values, some of them ahead of it.
Columns and labels:
[1] = test system: human aortic endothelial cells (HAEC); assay: Proliferative activity of HAEC (WST-8 assay); type: cell-based; settings: 1 μM and 3 μM, 48 hours incubation, vs solvent control, n=3 (FIG. 1)
Method: (§1) The Compound 1 was produced according to the method described in WO97/012869 and dissolved in dimethyl sulfoxide (solvent). As for cells used in the experiment, human aortic endothelial cells (HAEC (Lonza Group Ltd.)) and normal human umbilical vein endothelial cells (HUVEC; American Type Culture Collection) were used.
HAEC were cultured using an endothelial cell growth medium (EGM-2 bullet kit; Lonza) containing 10% fetal bovine serum (FBS). The proliferative activity of HAEC was assessed by a WST-8 assay using a Cell Counting Kit (Dojindo Laboratories). In a 96-well plate, HAEC were seeded at a concentration of 5000 cells per well, and incubated for 24 hours. Subsequently, the medium in each well was exchanged to 100 μL of fresh culture medium containing various concentrations of the Compound 1 or solvent alone. After the 48 hours of subsequent incubation, 10 μL of WST-8 reagent was added to each well. The plate was incubated another 4 hours, and then the absorbance at 450 nm was measured with an absorbance plate reader.

[2] = Pharmacokinetics study in the rat, single oral dose; type: in vivo; settings: non-fasting, serum, n=3
Method: The concentration of the Compound 1 in the serum was detected with a high-performance liquid chromatography system attached with a fluorescence detector. The maximum plasma concentration (Cmax) and time to the maximum plasma concentration (Tmax) were determined from the measurement of the drug concentration in the serum, half-life (T1/2), and AUC. The time curve was computed by a least squares method and a trapezoidal method, respectively.

[3] = test system: normal human umbilical vein endothelial cells (HUVEC); assay: HUVEC tube formation on Matrigel matrix; type: cell-based
Method: as §1
HUVEC were cultured using an endothelial cell growth medium (Endothelial Cell Growth Medium: Cell Applications) containing 10% FBS. In a 96-well plate coated with Matrigel matrix, HUVEC were seeded at a concentration of 1.5×10^4 cells per well, and incubated in a 200 μL of culture medium containing various concentrations of the […] or solvent alone for 18 hours. After that, total tube length in a field (Total tube length) was calculated by image analysis using a light microscope (E-400; Nikon Corp.).

[4] = test system: rat femoral artery occlusion model; assay: Hindlimb muscle blood flow in rat hindlimb ischemia model by ligation of femoral artery (colored microspheres); type: in vivo; settings: 30 mg/kg oral twice daily for 27 days
Method: (§2) The Compound 1 was produced according to the method described in WO97/012869 and was used by dissolving in dimethyl sulfoxide or suspending in 1% (W/W) of hydroxypropyl methyl cellulose aqueous solution. As for animals, 7 to 9 week-old Sprague-Dawley (Slc:SD) male rats were used. As for anesthesia for operation, pentobarbital.sodium was intraperitoneally administered at a dose of 50 mg/kg.
(§3) Bilateral femoral arteries were exposed and the arteries were ligated using a suture under anesthesia. For histological analysis, the Compound 1 or base alone was orally administered twice daily for 27 days starting on the day of operation. On Day 28, the left gastrocnemius muscle was extirpated and frozen in a Tissue-Tek O.C.T. compound (Sakura Finetech Japan Co., Ltd.). Tissue sections at a thickness of 10 μm were prepared by slicing the frozen tissue sample with a freezing microtome, and dried in an air and fixed with acetone. […] The positive staining with α-SMA was identified by an examination using a light microscope, and the luminal area of intramuscular artery was quantified by image analysis (Win ROOF; Mitani Co., Ltd.). The blood flow volume on Day 28 in the hindlimb muscle in this model was determined by measuring at two points, in other words before and after exercise, using Dye-Trak VII+ microspheres (Triton Technology, Inc.).
In particular detail, initially a pentobarbital.sodium solution was intraperitoneally administered to the rat at a dose of 50 mg/kg to anesthetize. […] Wave profile of blood pressure that is characteristic to the left ventricular was detected to confirm whether the catheter has reached to the left ventricular. The temporal pulse pressure and average blood pressure were measured with a sphygmomanometer via the blood pressure transducer. […]

[5] = test system: excised rat femoral artery contracted with KCl; assay: Vasodilation of excised rat femoral artery in Magnus tube; settings: 0.1 μmol/L to 30 μmol/L, in vitro, n=3 (FIG. 9)
Method: The femoral artery vessel (3 mm in width) excised from the rat was placed to a Magnus tube filled with a Krebs-Henseleit solution maintained at 37° C., to which a mixed gas of 95% O2 and 5% CO2 was continuously injected by reference to the method by Abiru et al. (Abiru T, et al., Eur J. Pharmacol. 1995; 281:9-15.). The isometric tension of the vessel was measured with a tension transducer, and the result was recorded with a thermal printer. The vessel was adjusted to a resting tension of 0.75 g. The vessel was contracted by 60 mmol/L (rats) of potassium chloride, and then the Compound 1 or a base was continuously injected to the Magnus tube. At the end of each experiment, […] of papaverine was added in order to determine the maximum relaxation.

[6] = test system: rat femoral artery occlusion model; assay: Luminal area of intramuscular artery in gastrocnemius muscle, rat femoral artery ligation model (α-SMA staining); type: in vivo; settings: 30 mg/kg oral twice daily for 27 days, mean±standard error, n=16, ligated control 3315±416, sham 14642±1062, P<0.05
Method: as §2, §3

[7] = test system: lower-extremity ischemic mouse; settings: long-term administration (Non-Patent Document 7); cited from earlier work
[8] = test system: human aortic endothelial cells (HAEC); settings: HAEC in vitro; eNOS phosphorylation via cAMP/PKA and PI3K/Akt, increased NO production (Non-Patent Document 6); cited from earlier work
[9] = Sprague-Dawley (Slc:SD), single oral 3 mg/kg
[10] = Sprague-Dawley (Slc:SD), single oral 10 mg/kg
[11] = Sprague-Dawley (Slc:SD), single oral 100 mg/kg
[12] = Sprague-Dawley, single oral 10 mg/kg
[13] = Sprague-Dawley, single oral 30 mg/kg

AUC(0-inf) [2, 9]: 1.33 µM·h
AUC(0-t) [2, 9]: 0.83 µM·h
Cmax [2, 9]: 300 ± 60 nM
Tmax [2, 9]: 1 h
half-life [2, 9]: 2.64 h
AUC(0-t) [2, 10]: 2.38 µM·h
Cmax [2, 10]: 830 ± 140 nM
Cmax ([2]; Sprague-Dawley (Slc:SD), single oral 30 mg/kg): 4730 ± 280 nM
AUC(0-inf) [2, 11]: 48.2 µM·h
AUC(0-t) [2, 11]: 47.1 µM·h
Tmax [2, 11]: 1 h
half-life [2, 11]: 2.19 h
AUC(0-inf) [2, 12]: 2.55 µM·h
Tmax [2, 12]: 1 h
half-life [2, 12]: 2 h
AUC(0-inf) [2, 13]: 14.8 µM·h
AUC(0-t) [2, 13]: 14.1 µM·h
Tmax [2, 13]: 2 h
half-life [2, 13]: 1.61 h
Cmax ([2]; Sprague-Dawley, single oral 100 mg/kg): 9760 ± 1440 nM
Compound: O=C(NCCCOc1ccc2[nH]c(=O)ccc2c1)N(C1CC1)[C@@H]1CCCC[C@H]1O [Compound 1, (−)-6-[3-[3-cyclopropyl-3-[(1R,2R)-2-hydroxycyclohexyl]ureido]propoxy]-2(1H)-quinolinone]
effect on the proliferative activity of HAEC [1]: no effect
angiogenesis in photographs of HUVEC tube formation ([3]; 0.01, 0.1, 1, 10, 100 μM (FIG. 2)): no angiogenesis could be confirmed
HUVEC tube formation, ratio of Total tube length with respect to the control ([3]; 0.01 to 100 μM, 18 hours, n=2 (FIG. 3)): no significant difference with respect to the control
angiogenic activity via direct action to endothelial cells ([3]; conclusion from HAEC proliferation and HUVEC tube formation): does not have an angiogenic activity
blood flow in the gastrocnemius muscle after exercise ([4]; Day 28, after exercise, mean±standard error, n=20, control 0.561±0.034, P<0.001): 0.818 ± 0.058 mL/min/g
blood flow in anterior tibialis muscle after exercise ([4]; Day 28, after exercise, mean±standard error, n=20, control 0.697±0.039, P<0.001): 0.992 ± 0.060 mL/min/g
hindlimb muscle blood flow before exercise ([4]; Day 28, before exercise (at rest), gastrocnemius and anterior tibialis): no change
vasodilating effect on ring specimen of excised rat femoral artery [5]: dose-dependent vasodilating effect
luminal area of the main artery in the gastrocnemius muscle [6]: 7100±824 μm^2

Compound: O=C1CCc2cc(OCCCCc3nnnn3C3CCCCC3)ccc2N1 [cilostazol]
vascular density in lower-extremity muscles [7]: elevates
tubulogenesis of endothelial cells [8]: promotes tubulogenesis of endothelial cells
